Test results taken from patent US9969700B2, “P2X4 receptor antagonist” (NIPPON CHEMIPHAR CO., LTD, priority 2012, dated 2018).
Where a name gives a salt, the structure may show the parent alone.

Each compound was assayed against human P2X4 receptor (Homo sapiens (Human), UniProt Q99571) (assay: P2X4 receptor antagonist activity (ATP-induced intracellular calcium, Fura-2 AM)). Conditions: 1321N1 cells stably expressing human P2X4 receptor; test substance 15 minutes before ATP; read-out: Inhibitory activity IC50.
Assay type: cell-based

Chain of human P2X4 receptor (Q99571 whole entry): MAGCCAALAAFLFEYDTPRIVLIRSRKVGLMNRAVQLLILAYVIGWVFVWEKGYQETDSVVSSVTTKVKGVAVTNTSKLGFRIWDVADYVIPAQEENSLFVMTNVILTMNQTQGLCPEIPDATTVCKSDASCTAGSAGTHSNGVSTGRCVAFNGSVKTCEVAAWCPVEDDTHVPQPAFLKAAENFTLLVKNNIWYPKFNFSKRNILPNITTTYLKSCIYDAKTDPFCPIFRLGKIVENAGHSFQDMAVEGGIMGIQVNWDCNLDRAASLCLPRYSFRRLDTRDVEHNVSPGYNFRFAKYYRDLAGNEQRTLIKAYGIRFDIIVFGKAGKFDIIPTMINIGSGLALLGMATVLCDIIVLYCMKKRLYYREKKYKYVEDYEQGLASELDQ

Q: O=C1CC(=O)N(c2ccc(NC(=O)c3c(O)cccc3Cl)cc2)c2ccc3ccccc3c2N1 [Example 118, 5-[4-(6-Chloro-2-hydroxybenzoylamino)phenyl]-1H-naphtho[1,2-b][1,4]diazepine-2,4(3H,5H)-dione] was tested. Which IC50 did it give?
A: 1100 nM

Q: With CN(c1ccc(N2C(=O)CC(=O)Nc3c2ccc2c3CCCC2)cc1)S(=O)(=O)Cc1ccccc1Cl [Example 196, 1-(2-Chlorophenyl)-N-[4-(2,4-dioxo-1,2,3,4,8,9,10,11-octahydronaphtho[1,2-b][1,4]diazepin-5-yl)phenyl]-N-methylmethanesulfonamide] as the compound, how does the IC50 read?
A: 970 nM

Q: Which IC50 does the source give for O=C1CN=C(c2ccc(NS(=O)(=O)Cc3ccccc3Cl)cc2)c2ccc3ccccc3c2N1 [Example 197, 1-(2-Chlorophenyl)-N-[4-(2-oxo-2,3-dihydro-1H-naphtho[1,2-e][1,4]diazepin-5-yl)phenyl]methanesulfonamide] here?
A: 440 nM

Q: How did the IC50 turn out when O=C(Cc1ccccc1Cl)Nc1ccc(N2C(=O)CC(=O)Nc3c2ccc2ccccc32)cc1 [Example 13, 5-[4-[(2-Chlorophenylacetyl)amino]phenyl]-1H-naphtho[1,2-b][1,4]diazepine-2,4(3H,5H)-dione] was run?
A: 540 nM

Q: O=C1CC(=O)N(c2ccc(NC(=O)Nc3ccccc3)cc2)c2ccc3ccccc3c2N1 [Example 20, 1-[4-(2,4-Dioxo-1,2,3,4-tetrahydronaphtho[1,2-b][1,4]diazepin-5-yl)phenyl]-3-phenylurea] was tested. Which IC50 did it give?
A: 1200 nM

Q: With Cc1ncccc1C(=O)Nc1ccc(N2C(=O)CC(=O)Nc3c2ccc2ccccc32)cc1 [Example 208, 5-[4-[(2-Methylpyridin-3-yl)carbonylamino]phenyl]-1H-naphtho[1,2-b][1,4]diazepine-2,4(3H,5H)-dione hydrochloride] as the compound, how does the IC50 read?
A: 1300 nM

Q: Which IC50 does the source give for O=C(COc1ccccn1)Nc1ccc(N2C(=O)CC(=O)Nc3c2ccc2ccccc32)cc1 [Example 210, 5-[4-[2-[(Pyridin-2-yl)oxy]acetylamino]phenyl]-1H-naphtho[1,2-b][1,4]diazepine-2,4(3H,5H)-dione] here?
A: 1400 nM

Q: How did the IC50 turn out when O=C1CC(=O)N(c2ccc(NC(=O)c3cccnc3Cl)cc2)c2ccc3ccccc3c2N1 [Example 209, 5-[4-[(2-Chloropyridin-3-yl)carbonylamino]phenyl]-1H-naphtho[1,2-b][1,4]diazepine-2,4(3H,5H)-dione] was run?
A: 940 nM

These compounds were tested on Neurogenic pain model (modified Chung model) (assay: Analgesic activity, von Frey filament test in neurogenic pain model (modified Chung model)). Conditions: rats, oral administration of 50 mg/kg, day 9 after the modified Chung operation; significant difference compared with vehicle group.
Assay type: in vivo
Experimental: Neurogenic pain model (modified Chung model) was prepared according to the description of Non-patent document 9. More specifically, under isoflurane anesthesia, back hair of rats was extensively shaved, the shaved parts were wiped with rubbing alcohol, the rate were fixed on an incubator in the abdominal position, and the skins were cut and opened along the dorsal median line on the upper and lower sides of the sacroiliac bone. The left lateral paravertebral muscle was separated in the sacral region, and then the ligament was separated. The sacroiliae rim and the upper part thereof were cut and opened along the pyramid, the L5 nerve was ligated, and the nerve was cut on the peripheral side. […]
The pain threshold value (paw withdrawal threshold (g)) was calculated according to the up down method by stimulating the sole with a von Frey filament (Stoelting Co., TOUCH-TEST SENSORY EVALUATOR) and determining presence or absence of withdrawal response.
As the von Frey filaments, seven filaments giving different stimulation strengths were used. The 50% threshold value was calculated according to the up down method by referring to the method of Chaplan et al. (Chaplan S R, Bach F W, Pogrel J W, Chung J M, Yaksh T L.: Quantitative assessment of tactile allodynia in the rat paw, J. Neurosci. Methods, 53:55-63 (1994). […]

Q: How did the “pain threshold value (paw withdrawal threshold) of the diseased limb” value turn out when O=C1CC(=O)N(c2ccc(NC(=O)c3c(O)cccc3Cl)cc2)c2ccc3ccccc3c2N1 [Example 118, 5-[4-(6-Chloro-2-hydroxybenzoylamino)phenyl]-1H-naphtho[1,2-b][1,4]diazepine-2,4(3H,5H)-dione] was run?
A: raised the pain threshold value of the diseased limb

Q: O=C1CC(=O)N(c2ccc(NC(=O)c3ccccc3I)cc2)c2ccc3ccccc3c2N1 [Example 48, 5-[4-(2-Iodobenozoylamino)phenyl]-1H-naphtho[1,2-b][1,4]diazepine-2,4(3H,5H)-dione] was tested. Which “pain threshold value (paw withdrawal threshold) of the diseased limb” value did it give?
A: raised the pain threshold value of the diseased limb
